{"source": "paper PMC2942994", "about": "(Biochemical pharmacology, 2010)", "key": {"hSERT V367I": {"molecular_target": "hSERT V367I (Homo sapiens, UniProt P31645, V367I)", "sequence (P31645 whole entry V367I)": "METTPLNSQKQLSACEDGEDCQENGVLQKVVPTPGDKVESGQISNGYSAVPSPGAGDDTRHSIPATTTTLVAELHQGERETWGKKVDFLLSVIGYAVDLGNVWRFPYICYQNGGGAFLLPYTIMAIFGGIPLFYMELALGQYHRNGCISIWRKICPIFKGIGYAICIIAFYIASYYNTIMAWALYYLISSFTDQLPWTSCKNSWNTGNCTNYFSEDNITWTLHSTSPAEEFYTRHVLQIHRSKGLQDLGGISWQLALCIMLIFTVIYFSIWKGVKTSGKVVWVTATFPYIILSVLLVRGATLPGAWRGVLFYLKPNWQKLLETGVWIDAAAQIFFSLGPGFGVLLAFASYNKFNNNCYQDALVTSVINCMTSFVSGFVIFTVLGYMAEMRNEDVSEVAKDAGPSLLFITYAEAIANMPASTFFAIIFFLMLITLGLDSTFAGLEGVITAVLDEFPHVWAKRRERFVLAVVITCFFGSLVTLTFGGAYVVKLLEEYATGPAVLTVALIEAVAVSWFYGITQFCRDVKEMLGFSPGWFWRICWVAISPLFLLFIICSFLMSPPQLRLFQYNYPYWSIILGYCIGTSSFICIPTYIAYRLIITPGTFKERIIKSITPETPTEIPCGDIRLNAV", "test": "cell-based", "parameters": "species or system HEK-293, transiently transfected"}, "[1]": {"molecular_target": "hSERT (human serotonin transporter) (Homo sapiens, UniProt P31645, M370L)", "sequence (P31645 whole entry M370L)": "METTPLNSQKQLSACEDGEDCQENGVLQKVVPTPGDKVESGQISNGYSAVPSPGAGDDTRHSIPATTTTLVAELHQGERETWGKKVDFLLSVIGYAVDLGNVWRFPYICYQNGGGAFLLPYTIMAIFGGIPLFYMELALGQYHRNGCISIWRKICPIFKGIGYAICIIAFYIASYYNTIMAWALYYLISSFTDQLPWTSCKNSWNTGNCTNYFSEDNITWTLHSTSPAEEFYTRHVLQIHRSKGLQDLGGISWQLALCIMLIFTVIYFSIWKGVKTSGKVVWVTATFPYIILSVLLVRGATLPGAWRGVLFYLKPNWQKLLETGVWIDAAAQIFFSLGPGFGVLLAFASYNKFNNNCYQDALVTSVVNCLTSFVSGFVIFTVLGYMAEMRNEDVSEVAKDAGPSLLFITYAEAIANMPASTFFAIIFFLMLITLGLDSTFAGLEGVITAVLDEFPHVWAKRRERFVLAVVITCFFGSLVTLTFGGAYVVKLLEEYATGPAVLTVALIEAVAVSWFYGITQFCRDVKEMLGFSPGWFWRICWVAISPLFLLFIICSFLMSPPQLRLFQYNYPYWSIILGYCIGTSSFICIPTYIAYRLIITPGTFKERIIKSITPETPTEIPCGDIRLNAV", "test": "cell-based", "parameters": "species or system HEK-293, transiently transfected"}}, "data": [{"smiles": "COC(=O)[C@H]1[C@@H](c2ccc(I)cc2)C[C@@H]2CC[C@H]1N2C", "note": "[RTI-55]", "values": [{"measurement": "Ki", "setting": "hSERT V367I", "value": "16 ± 6", "unit": "nM"}, {"measurement": "Ki", "setting": "[1]", "value": "16 ± 2", "unit": "nM"}]}]}
